Measurements taken from PubChem BioAssay AID330 (DTP/NCI, 2004).
Values joined by “and” are separate entries in the source; they are usually repeats but may differ in a detail not shown here. Identical values can stand only once. Toxic doses and inconclusive results are not listed.

Tested on: P388 leukemia ip, CD2F1 mice, survival T/C
Test: NCI In Vivo Anticancer Drug Screen. Data for tumor model P388 Leukemia (intraperitoneal) in CD2F1 (CDF1) mice
Details: endpoint: median survival time, higher = longer survival
Procedure, shortened: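 Mice carrying the transplanted tumor received test compound or vehicle. Survival was recorded in each group, and the value is the treated-group measurement divided by that of the vehicle-treated control group.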

[1] = dose: 25.0 mg/kg/injection, schedule: Q01DX009 (ip), vehicle: saline with Tween-80
[2] = dose: 50.0 mg/kg/injection, schedule: Q01DX009 (ip), vehicle: saline with Tween-80
[3] = dose: 100.0 mg/kg/injection, schedule: Q01DX009 (ip), vehicle: saline with Tween-80
[4] = dose: 60.0 mg/kg/injection, schedule: Q01DX005 (ip), vehicle: saline with Tween-80
[5] = dose: 120.0 mg/kg/injection, schedule: Q01DX005 (ip), vehicle: saline with Tween-80
[6] = dose: 240.0 mg/kg/injection, schedule: Q01DX005 (ip), vehicle: saline with Tween-80
[7] = dose: 100.0 mg/kg/injection, schedule: Q01DX001 (ip), vehicle: saline with Tween-80
[8] = dose: 200.0 mg/kg/injection, schedule: Q01DX001 (ip), vehicle: saline with Tween-80
[9] = dose: 400.0 mg/kg/injection, schedule: Q01DX001 (ip), vehicle: saline with Tween-80
[10] = dose: 50.0 mg/kg/injection, schedule: Q01DX009 (ip), vehicle: Klucel (hydroxypropylcellulose) (HPC)
[11] = dose: 100.0 mg/kg/injection, schedule: Q01DX009 (ip), vehicle: Klucel (hydroxypropylcellulose) (HPC)
[12] = dose: 25.0 mg/kg/injection, schedule: Q01DX005 (ip), vehicle: Klucel (hydroxypropylcellulose) (HPC)
[13] = dose: 50.0 mg/kg/injection, schedule: Q01DX005 (ip), vehicle: Klucel (hydroxypropylcellulose) (HPC)
[14] = dose: 50.0 mg/kg/injection, schedule: Q01DX005 (ip), vehicle: saline with Tween-80
[15] = dose: 100.0 mg/kg/injection, schedule: Q01DX005 (ip), vehicle: saline with Tween-80
[16] = dose: 200.0 mg/kg/injection, schedule: Q01DX005 (ip), vehicle: saline with Tween-80
[17] = dose: 200.0 mg/kg/injection, schedule: Q01DX009 (ip), vehicle: saline with Tween-80
[18] = dose: 100.0 mg/kg/injection, schedule: Q01DX005 (ip), vehicle: Klucel (hydroxypropylcellulose) (HPC)
[19] = dose: 200.0 mg/kg/injection, schedule: Q01DX005 (ip), vehicle: Klucel (hydroxypropylcellulose) (HPC)
[20] = dose: 50.0 mg/kg/injection, schedule: Q01DX001 (ip), vehicle: Klucel (hydroxypropylcellulose) (HPC)
[21] = dose: 100.0 mg/kg/injection, schedule: Q01DX001 (ip), vehicle: Klucel (hydroxypropylcellulose) (HPC)
[22] = dose: 200.0 mg/kg/injection, schedule: Q01DX001 (ip), vehicle: Klucel (hydroxypropylcellulose) (HPC)

COCCCC12C=C(OC)C(=O)C=C1OC(c1cc(OC)c(OC)c(OC)c1)C2C (stereo unspecified)
T/C (dose: 8.75 mg/kg/injection, schedule: Q01DX005 (ip), vehicle: Klucel (hydroxypropylcellulose) (HPC)): 100 % of control
T/C (dose: 17.5 mg/kg/injection, schedule: Q01DX005 (ip), vehicle: Klucel (hydroxypropylcellulose) (HPC)): 106 % of control
T/C (dose: 35.0 mg/kg/injection, schedule: Q01DX005 (ip), vehicle: Klucel (hydroxypropylcellulose) (HPC)): 96 % of control

CCC(SC)(SC)C(=O)N(C)c1ccccc1
T/C [1]: 100 % of control
T/C [2]: 104 % of control
T/C [3]: 100 % of control

N=C1C=CC2C(=Nc3ccccc3[N+]2=O)N1Cc1ccncc1 (stereo unspecified)
T/C [4]: 98 % of control
T/C [5]: 90 % of control
T/C [6]: 98 % of control

CSc1nc2n(Cc3cn(C)c(=O)n(C)c3=O)cc(C)cc-2c(=O)n1
T/C [7]: 96 % of control
T/C [8]: 94 % of control
T/C [9]: 94 % of control

CCN(CC)Cc1c(C)[nH]c2c3c(ccc2c1=O)Oc1c(ccc2c(=O)c(CN(CC)CC)c(C)[nH]c12)O3
T/C [10]: 96 % of control
T/C [11]: 93 % of control
T/C (dose: 200.0 mg/kg/injection, schedule: Q01DX009 (ip), vehicle: Klucel (hydroxypropylcellulose) (HPC)): 96 % of control

CC1=C(O)C(=O)C(c2c(C)cc(C)c(Br)c2C)=C(O)C1=O
T/C (dose: 6.25 mg/kg/injection, schedule: Q01DX005 (ip), vehicle: Klucel (hydroxypropylcellulose) (HPC)): 100 % of control and 104 % of control
T/C (dose: 12.5 mg/kg/injection, schedule: Q01DX005 (ip), vehicle: Klucel (hydroxypropylcellulose) (HPC)): 104 % of control and 117 % of control and 118 % of control
T/C [12]: 104 % of control and 117 % of control
T/C [13]: 116 % of control and 94 % of control

CCOC(=O)CC1(O)CS/C(=C(\C#N)C(=O)OCC)N1c1ccccc1 (stereo unspecified)
T/C [14]: 96 % of control
T/C [15]: 100 % of control
T/C [16]: 96 % of control

OCC1C2CCCC12 (stereo unspecified)
T/C [2]: 95 % of control
T/C [3]: 114 % of control
T/C [17]: 104 % of control

O=C(CCCCCCCCc1ccc(O)cc1)c1c(O)cccc1O
T/C (dose: 6.5 mg/kg/injection, schedule: Q01DX009 (ip), vehicle: Klucel (hydroxypropylcellulose) (HPC)): 101 % of control
T/C (dose: 13.0 mg/kg/injection, schedule: Q01DX009 (ip), vehicle: Klucel (hydroxypropylcellulose) (HPC)): 108 % of control
T/C (dose: 26.0 mg/kg/injection, schedule: Q01DX009 (ip), vehicle: Klucel (hydroxypropylcellulose) (HPC)): 95 % of control
T/C (dose: 52.0 mg/kg/injection, schedule: Q01DX009 (ip), vehicle: Klucel (hydroxypropylcellulose) (HPC)): 105 % of control

C=CCc1cc2c(cc1Cc1ccc(OC)cc1)OCO2
T/C (dose: 50.0 mg/kg/injection, schedule: Q01DX005 (ip), vehicle: distilled water + alcohol): 109 % of control
T/C (dose: 100.0 mg/kg/injection, schedule: Q01DX005 (ip), vehicle: distilled water + alcohol): 104 % of control
T/C (dose: 200.0 mg/kg/injection, schedule: Q01DX005 (ip), vehicle: distilled water + alcohol): 109 % of control

O=C1c2ccccc2C(=O)N1/N=[N+](\[O-])c1ccccc1
T/C [12]: 105 % of control
T/C [13]: 88 % of control
T/C [18]: 106 % of control
T/C [19]: 110 % of control

Cc1ccc(S(=O)(=O)N/N=C/c2c(Cl)n(C(=O)c3cccc(C)c3)c3ccccc23)cc1
T/C [20]: 97 % of control
T/C [21]: 90 % of control
T/C [22]: 87 % of control

C#CC(O)(c1ccccc1)c1ccc(N2CCOCC2)cc1 (stereo unspecified)
T/C [1]: 95 % of control
T/C [2]: 98 % of control
T/C [3]: 98 % of control
T/C [17]: 97 % of control

CCOC(=O)C1=C(C)Oc2cc3c(cc2C1c1cc(OC)c(OC)c(OC)c1)OCO3 (stereo unspecified)
T/C [4]: 97 % of control
T/C [5]: 98 % of control
T/C [6]: 94 % of control

CN1C(=O)C(CC(=O)O)(Cc2ccccc2)N(C(=O)c2ccccc2)[C@H]1C(C)(C)C (stereo partly specified)
T/C [7]: 112 % of control
T/C [8]: 94 % of control
T/C [9]: 108 % of control

COC(=O)C(N)C(C)O (stereo unspecified)
T/C (dose: 12.5 mg/kg/injection, schedule: Q01DX009 (ip), vehicle: water): 97 % of control
T/C (dose: 25.0 mg/kg/injection, schedule: Q01DX009 (ip), vehicle: water): 101 % of control
T/C (dose: 50.0 mg/kg/injection, schedule: Q01DX009 (ip), vehicle: water): 89 % of control
T/C (dose: 100.0 mg/kg/injection, schedule: Q01DX009 (ip), vehicle: water): 102 % of control
T/C (dose: 200.0 mg/kg/injection, schedule: Q01DX009 (ip), vehicle: water): 102 % of control

Cc1ccc2nc(N3C(=O)CSC3=S)sc2c1
T/C [10]: 100 % of control
T/C [11]: 96 % of control

CC[As](CC)SC1OC(COC(C)=O)C(OC(C)=O)C(OC(C)=O)C1OC(C)=O (stereo unspecified)
T/C (dose: 50.0 mg/kg/injection, schedule: Q01DX009 (ip), vehicle: saline + alcohol): 116 % of control
T/C [2]: 108 % of control
T/C (dose: 100.0 mg/kg/injection, schedule: Q01DX009 (ip), vehicle: saline + alcohol): 180 % of control
T/C [3]: 115 % of control
T/C (dose: 200.0 mg/kg/injection, schedule: Q01DX009 (ip), vehicle: saline + alcohol): 181 % of control
T/C [17]: 96 % of control
T/C (dose: 400.0 mg/kg/injection, schedule: Q01DX009 (ip), vehicle: saline with Tween-80): 102 % of control

[NH-]c1ncnc2[nH]c(C[N-]C(Cc3cnc[nH]3)C(=O)O)nc12.[Pd+2] (stereo unspecified)
T/C (dose: 50.0 mg/kg/injection, schedule: Q01DX005 (ip), vehicle: saline): 90 % of control
T/C (dose: 100.0 mg/kg/injection, schedule: Q01DX005 (ip), vehicle: saline): 97 % of control
T/C (dose: 200.0 mg/kg/injection, schedule: Q01DX005 (ip), vehicle: saline): 94 % of control

O=C(O)CC1CC(O)CC/C1=N\Nc1ccc([N+](=O)[O-])cc1[N+](=O)[O-] (stereo unspecified)
T/C [14]: 102 % of control
T/C [15]: 98 % of control
T/C [16]: 91 % of control

CC(=O)Nc1ccc(/C=C/c2ccc(N=C=S)cc2S(=O)(=O)O)c(S(=O)(=O)O)c1
T/C [2]: 110 % of control
T/C [3]: 110 % of control

OCCSc1c(Cl)c(Cl)c(Cl)c(Cl)c1Cl
T/C [3]: 106 % of control
T/C [17]: 113 % of control

[Fe+2].[Fe+2].c1ccc2c(c1)-c1nc-2nc2[n-]c(nc3nc(nc4[n-]c(n1)c1ccccc41)-c1ccccc1-3)c1cc3c4nc5nc(nc6[n-]c(nc7nc(nc([n-]4)c3cc21)-c1ccccc1-7)c1ccccc61)-c1ccccc1-5
T/C [13]: 100 % of control
T/C [18]: 110 % of control
T/C [19]: 106 % of control

CN(CCc1ccccn1)c1ccc2c(c1)C(=O)c1ccccc1-2
T/C [14]: 100 % of control
T/C [15]: 93 % of control

CCOC(=O)CCc1c(-c2ccccc2)[nH]c2ccccc12
T/C [4]: 106 % of control
T/C [5]: 107 % of control
T/C [6]: 101 % of control

CCCCCCCc1c(C)[nH]c2cc(OC)ccc2c1=O
T/C [2]: 93 % of control
T/C [3]: 95 % of control
T/C [17]: 94 % of control

Cc1cc(C(=O)NC(C)c2ccc(S(=O)(=O)NC(=O)NC3CCCCC3)cc2)no1 (stereo unspecified)
T/C (dose: 50.0 mg/kg/injection, schedule: Q04DX002 (ip), vehicle: Klucel (hydroxypropylcellulose) (HPC)): 99 % of control
T/C (dose: 100.0 mg/kg/injection, schedule: Q04DX002 (ip), vehicle: Klucel (hydroxypropylcellulose) (HPC)): 100 % of control
T/C (dose: 200.0 mg/kg/injection, schedule: Q04DX002 (ip), vehicle: Klucel (hydroxypropylcellulose) (HPC)): 97 % of control

O/N=C/c1c(Cl)nc2sccn12
T/C [20]: 100 % of control
T/C [21]: 100 % of control and 91 % of control
T/C [22]: 89 % of control and 97 % of control

Cc1ccc(NC(=O)Oc2ccc(F)cc2)c([N+](=O)[O-])c1
T/C [2]: 96 % of control
T/C [3]: 95 % of control
T/C [17]: 88 % of control

CN(C)CC1CC/C=C\C(c2ccccc2)N(C)C1c1ccccc1 (stereo unspecified)
T/C (dose: 100.0 mg/kg/injection, schedule: Q04DX003 (ip), vehicle: suspension in saline): 105 % of control
T/C (dose: 200.0 mg/kg/injection, schedule: Q04DX003 (ip), vehicle: suspension in saline): 116 % of control
T/C (dose: 400.0 mg/kg/injection, schedule: Q04DX003 (ip), vehicle: suspension in saline): 99 % of control
